Test results as given in a melting point compilation (Tetko et al.; mined from patent text by program, amines drawn as free bases though some values may be those of a salt).

Compound | melting point
Cc1nnc(F)c(-c2c(F)cc(F)cc2F)c1-c1cccs1 | 71 to 74 °C
CCOc1ccc(-c2ccc3c(c2)C=C(C(=O)OC(C)(C)C)CCN3C)cc1 | 140 to 142 °C
CCOC(=O)C1Cc2c(OC)ccc(OC)c2CO1 (stereo unspecified) | 59.8 °C
Cc1cc(C)c(S(=O)(=O)NC(CNc2ccccc2)C(F)(F)F)c(C)c1 (stereo unspecified) | 82 to 86 °C
Cc1cc(C)c(CP(=O)(Cc2c(C)cc(C)cc2C)Cc2c(C)cc(C)cc2C)c(C)c1 | 232 to 233 °C
CCCCN1CCN(NC(=O)c2cc(Cl)c(N)cc2OC)CC1 | 174 °C
O=C(O)C1CN(Cc2ccc(OCc3ccc(Cl)c(Cl)c3)cc2)C1 | 166 °C
CCCOc1ccc(-c2c(C)c(=O)cc(-c3ccccc3)n2-c2ccccc2)cc1 | 165 to 168 °C
CC(C)(C)C(=O)C=Cc1ccc(C2OCCO2)cc1 | 79 to 81 °C
CN(C)CCCCc1ccc(CO)o1 | 24 °C
O[C@@H](COc1cccc(-c2noc3ccsc23)c1)CN1CCN(c2cccc(Cl)c2)CC1 | 118 to 120 °C
O=C(O)Cc1csc(N=C2SC[C@@H]3Cc4ccccc4CN23)n1 | 185 °C
Cc1cn(S(=O)(=O)c2ccccc2)c2ccccc12 | 116 to 120 °C
Cc1[nH]c2ccnn2c(=O)c1CCO | 225 to 226 °C
N#Cc1[nH]c(Br)c([N+](=O)[O-])c1Br | 170 to 175 °C
CCn1c(=O)c2[nH]c(/C=C/c3cc(F)cc(F)c3)nc2n(CC)c1=O | > 280 °C
O=C(CCc1ccsc1)CC(=O)N1CCOCC1 | 81 to 84 °C
CCOC(=O)C1=C(C)NN=C(C(=O)OC)C1c1ccccc1C (stereo unspecified) | 165 °C
O=Cc1cn(C(c2ccccc2)(c2ccccc2)c2ccccc2)c(F)n1 | 177 to 179 °C
Cc1ccc(COc2ccn(Cc3ccccc3)c(=O)c2Br)cc1 | 149 to 150 °C
CC(=O)N[C@H]1CCC(=O)N2CCC[C@@H](C(=O)O)N2C1=O | > 250 °C
CC(C)(C)c1cc(CCc2ccccc2NC(=O)NCc2ccco2)cc(C(C)(C)C)c1O | 170 °C
CCN(CC)CC(C)N1c2ccccc2Sc2ccc(C(=S)NCCC(C)C)cc21 (racemic) | 80 °C
Cc1cccc(CON2C(C)(C)CC(OC(=O)c3ccccc3)CC2(C)C)c1 | 64 to 65 °C
COc1ccc(N2CCN(c3ccc(N)cc3)CC2)cc1 | 192 °C
CN(CP(=O)(O)O)C1CCS(=O)(=O)C1 (stereo unspecified) | 222 to 225 °C

Compound | melting point
CC(=O)Nc1ccc(Cl)cc1C(=O)c1c(F)cccc1F | 106 to 116 °C
CCNc1nc2n(n1)Cc1ccccc1-2 | 150 to 152 °C
O=Cc1ccc(OC(F)F)c([N+](=O)[O-])c1 | 88 to 90 °C
O=C(CCN1C(=O)CSC1=S)Nc1ccccc1[N+](=O)[O-] | 170 to 171 °C
CN(N)C(=O)NC1c2ccccc2Oc2ccccc21 | 173 to 176 °C
Cn1ncc2c1CCCc1c-2cnn1C | 191 to 195 °C
O=C1Nc2ccc(Cl)cc2C(C#Cc2ccccc2)(C(F)(F)Cl)O1 (racemic) | 154 to 155 °C
CCOC(=O)Cc1cccc2c(-c3ccccc3)onc12 | 97 to 98 °C
CC(C)c1ccccc1Sc1c(O)cc(-c2ccc(OCC3CCCCC3)cc2)oc1=O | 187 to 188 °C
N#Cc1ccc(C(=O)NCCC(=O)NC(CC(=O)OCc2ccccc2)C(=O)NC(Cc2ccccc2)C(=O)OCc2ccccc2)nc1 (stereo unspecified) | 157 to 158 °C
CC(C)CCOC(=O)c1cc2c([nH]c3ccccc32)c(-c2ccc3c(n2)C(=O)C(NC(=O)CCl)=CC3=O)n1 | 280 to 284 °C
CN1C(=O)C(NC(=O)Nc2ccccc2[N+](=O)[O-])N=C(c2ccccc2)c2ccccc21 (stereo unspecified) | 260 to 261 °C
CCOC(=O)c1c(C(F)(F)F)nc(C(F)(F)Cl)c(C(=O)O)c1OCC | 81 to 83 °C
COc1ccc(/C=C/C(=O)C2C(=O)CC(c3ccc(OC)cc3)C([N+](=O)[O-])C2c2ccccc2)cc1 (stereo unspecified) | 164 to 165 °C
Cc1ccc(N(C)S(=O)(=O)c2cccs2)c2[nH]c(-c3ncc(CCl)s3)cc12 | 194 to 195 °C
CCC(=O)N1N=C(c2ccc([N+](=O)[O-])cc2)c2cc(Cl)ccc2CC1C (stereo unspecified) | 160 to 161 °C
Cc1nn(-c2ccc(C(F)(F)F)cn2)cc1CCCOc1cccc(CC(=O)O)c1 | 96 to 97 °C
O=C1NC2c3ccccc3CC2O1 (stereo unspecified) | 94 to 95 °C
CCOC(=O)CCNC(=O)CN1CC(=O)N(C)c2ccc(NC(=O)NCc3ccccc3)cc2C1=O | 100 to 102 °C
COc1ccc2c(c1)C1=C(SCC3(CCN(Cc4ccc(F)cc4)CC3)O1)C(=O)C2=O | 196 to 197 °C
CCN(CC)c1ccc(S(=O)(=O)CCCCC(=O)O)cc1 | 106 to 108 °C
CN(C)c1cccc2c(S(=O)(=O)Nc3ccc(Cl)nn3)cccc12 | 153 to 154 °C
S=c1[nH]nnn1CCN1CCOCC1 | 226 to 228 °C
CCc1ccc2nnc(C(=O)Oc3ccccc3)cc2c1 | 143 to 145 °C
O=C1c2cccnc2-c2cccnc21 | 158 to 159 °C
COc1ccccc1-c1ccc(C#N)c(=O)[nH]1 | 236 to 238 °C

Compound | melting point
N=c1sc2cc(OC(F)(F)F)ccc2n1CCS | 110 °C
CC(=O)NCC1OCC(Cc2ccc(Cl)cc2)CO1 (stereo unspecified) | 95 °C
ON=CCCc1ccccc1 | 85 to 93 °C
COc1ccc(COc2ccc(C(=O)Nc3ccc4cc(CN5CCCC5)cnc4c3C)cc2)cc1 | 192 to 193 °C
COc1ccc(C(=O)Nc2ccc3ccc(OCC(=O)N(C)C)nc3n2)cc1 | 165 °C
COc1ccc(CC(=O)NC(NC(=NC#N)Nc2ccccc2C)C(C)(C)C)cc1OC (stereo unspecified) | 156 to 157 °C
COC1=C(OC)C(=O)C2=C(CC(CO)(CCCCCCCCO)C2)C1=O | 59 to 61 °C
O=C(O)c1ccc(Sc2ccc(OCc3ccc4ccccc4n3)cc2)cc1 | 195 to 197 °C
O=C(Nc1c(C(O)(C(F)(F)F)C(F)(F)F)ccc2ccccc12)c1ccc(Br)cc1 | 155 to 156 °C
CCC(C)(C)c1ccc(Oc2cc(N)c(O)c([N+](=O)[O-])c2)c(C(C)(C)CC)c1 | 144 to 148 °C
COc1cc(-c2nc(C)ncc2Br)c(F)cc1Cl | 106 to 107 °C
COC(=O)Nc1nc2cc(-c3noc4ccccc34)ccc2[nH]1 | > 300 °C
Clc1ccc(OCc2ccccc2)cn1 | < 50 °C
CCOC(=O)Cc1ccc(NC(=O)C(COc2ccc(Cl)cc2)NS(=O)(=O)c2ccc(F)cc2)cc1 (racemic) | 132 to 134 °C
O=[N+]([O-])c1c(Cl)cccc1NCCO | 78 °C
COC(=O)c1ccc(OC)c(NC(=O)C[C@H]2O[C@H](c3cccc(OC)c3OC)c3cc(Cl)ccc3N(CC(C)(C)COC(C)=O)C2=O)c1 | 138 to 140 °C
O=C(O)C1=Cc2ccc(Cl)cc2OC1C(F)(F)F (stereo unspecified) | 175 to 178 °C
O=C(Nc1cccnc1O)C1CCCC1 | 242 to 243 °C
COc1cc2c(cc1OC)C1=C(C#N)SC(C)C(=O)N1CC2 (stereo unspecified) | 170 to 171 °C
COc1ccc(CNC(=O)c2cc3c(=O)n(Cc4ccc(C(=O)O)cc4)cnc3cn2)cc1 | 245 to 246 °C
Clc1cccc(Oc2ccc(OCn3cnc(Cl)c3Cl)cc2)n1 | 94 to 98 °C
c1ccc(-c2nc(-c3ccc(CN4CCCCCC4)s3)n[nH]2)nc1 | 160 to 162 °C
Oc1cc(CN/C=C2\CN=Cc3ccc(I)cc32)ccc1OC(F)F | 254 to 255 °C
Fc1ccc2[nH]c3c(ccc4cc[nH]c43)c2c1 | > 250 °C
CC(C)C(=O)Nc1ccc(C(=O)Nc2ccccc2[N+](=O)[O-])cc1 | 238 °C
COc1cc(-c2ccccc2)c(OC)cc1Nc1ncnc2cc(OC)c(OC)cc12 | 226 to 229 °C

Compound | melting point
COC(=O)c1c(Cc2ccc(C(=O)O)cc2)c(=O)c2ccc(Cl)cc2n1-c1ccccc1 | 258 to 261 °C
CCn1nc(-c2sc(N)nc2-c2ccccc2)ccc1=O | 232 to 235 °C
O=C(NCC(=O)N(CC(=O)N1CCCCC1c1ccccc1)c1ccccc1)Nc1cccc(CO)c1 (racemic) | 104 °C
CN(c1cccc2cc(-c3ncc(CCC(N)=O)s3)[nH]c12)S(=O)(=O)c1cccs1 | 246 to 247 °C
Oc1ccc(-c2ncc3ncc(Nc4ncccn4)cc3n2)cc1 | > 268 °C
CCOC(=O)COc1cc2cc(CC(C)C)sc2c(Cl)c1Cl | 75 to 76 °C
COc1ccc(C=CC(=O)Nc2ccc(C)cc2C(=O)O)cc1OC | 190 to 191 °C
CCOC(=O)c1ncc2[nH]c3ccc(-c4ccccc4)cc3c2c1C | 241 to 242 °C
COc1ccc2cnc(Nc3ccc(N4CCNCC4)cn3)nc2c1C1CCCC1 | > 200 °C
COc1cc2c(cc1OC)CN(CN1CCc3cc(OC)c(OC)cc3C1)CC2 | 126 °C
O=C(O)CCCCCOC(c1ccccc1)(c1ccccc1)c1ccccc1 | 114 to 116 °C
COC(=O)CCCCc1cc2nc(Cl)ccc2n1S(=O)(=O)c1ccccc1 | 73 °C
CCc1cc2c(cc1O)CCC1C2CCC2(C)C(=CCOC)CCC12 (stereo unspecified) | 133 to 134 °C
CCc1cn(C(C)(C)C(=O)N(C)C)nc1-c1ccccc1 | 108 to 111 °C
COc1cccc(N2CCN(Cc3ccccc3C(c3ccc(O)cc3)c3ccc(O)cc3)CC2)c1 | 128 to 130 °C
Fc1ccc(-c2nc(S)[nH]c2-c2ccncc2)cc1 | 386 to 388 °C
ClCCCCn1c2c(c3ccccc31)CCSc1ccccc1-2 | 75 °C
CCC1(O)CCC2C3CCC4CC(=O)CC(C)C4(C)C3CCC21C (stereo unspecified) | 152 °C
O=C(c1ccccc1)N1CCN2c3ccccc3Cn3cccc3C2C1 (stereo unspecified) | 137 to 139 °C
CC(C)(C)c1cccc(C(C)(C)C)c1OP1OP(Oc2c(C(C)(C)C)cccc2C(C)(C)C)OP(Oc2c(C(C)(C)C)cccc2C(C)(C)C)O1 (stereo unspecified) | 115 to 132 °C
CCCCC(Cc1ccc(OCCNC(=O)c2ccc(-c3ccc(C=O)cc3)cc2)cc1)C(=O)O (stereo unspecified) | 122 to 124 °C
CCC(=O)NCCC1CCc2ccc3c(c21)OCO3 (stereo unspecified) | 102 to 104 °C
C=CC(=O)OCCCCC[C@H]1CC[C@H](c2cccc(F)c2F)CC1 | 29.6 to 30.7 °C
